Measured values reported in PMC6025150, “Synthesis, enzyme inhibitory kinetics mechanism and computational study of N-(4-methoxyphenethyl)-N-(substituted)-4-methylbenzenesulfonamides as novel therapeutic agents for Alzheimer’s disease” (PeerJ, 2018).
“And” between values parts separate entries of the source, which are not always exact repeats. Equal values may be shown once. “Also recorded” adds a separate entry of the source. Read-outs that look alike come from different tables or passages of the source.

Columns and labels:
[1] = molecular target: T1, acetylcholinesterase (from human erythrocytes) (Homo sapiens, UniProt P22303); assay: biochemical; design: LogIC50 (best-fit value): unit not given here
T1 construct: acetylcholinesterase (from human erythrocytes, purchased from Sigma-Aldrich, Seoul, Korea); purchased Sigma-Aldrich, Seoul, Korea; host or cells: human erythrocytes (natural source)
Method: The inhibitory activities of synthesized compounds were determined spectrophotometrically using acetylthiocholine iodide as substrate by following the method of ([Ellman et al., 1961]). Briefly, The assay solution consisted of 180 µL of 50 mM Tris-HCl buffer, pH 7.7, containing (0.1 M sodium chloride and 0.02 M magnesium chloride) and 20 µL of enzyme (AChE, EC 3.1.1.7), acetylcholinesterase (from human erythrocytes, purchased from Sigma-Aldrich, Seoul, Korea) solution (50 U per well); increasing concentrations of test compounds (10 µL) were added to the assay solution and pre incubated for 30 min at 4 °C. After that 5,5′ Dithiobis (2 nitrobenzoic acid) (0.3 mM, 20 µL) and acetylthiocholine iodide (1.8 mM, 20 µL) were added to the reaction mixture and incubated at 37 °C for 10 min, followed by the measurement of absorbance at 412 nm. For non-enzymatic reaction, the assays were carried out with a blank containing all components except acetylcholinesterase. The assay measurements were measured at 412 nm using a micro plate reader (OPTI Max Tunable; Molecular Devices, Sunnyvale, CA, USA) having a wave-length range from 340–850 nm; for 96 well plates. The reaction rates were compared and percent inhibition was calculated due to the presence of tested inhibitors. […] Each concentration was analyzed in three independent experiments run in triplicate. The IC50 values were calculated by nonlinear regression using GraphPad Prism 5.0.
The % of Inhibition of Acetylcholinesterase was calculated as following: Inhibition%=B−S∕B×100. Here, the B and S are the absorbance’s for the blank and samples.

[2] = molecular target: T1, acetylcholinesterase (from human erythrocytes); assay: Determination of AChE inhibition kinetics (Lineweaver-Burk and secondary plots); type: biochemical
Method: The reaction mixture consisted of 180 µL of 50 mM Tris-HCl buffer (pH 7.7); 10 µL of 5c at the different concentrations (0.00, 0.075 and 0.15 µM) and 20 µL enzyme AChE (50 U per well). We added 20 µL of DTNB 0.3 mM and 20 µL of ATCI substrate at the different concentrations (4, 2, 1, 0.5, 0.25 and 0.125 mM) and mixed, pre-incubated time was same as acetylcholinesterase assay. We measured the absorbance at 412 nm up to 5 min. Lineweaver-Burk plot of the inverse of velocities vs. the inverse of substrate concentration was used for assessment of the type of inhibition AChE kinetically. […] The results (change in absorbance per sec) were processed by using SoftMaxPro software.

T1 sequence (P22303 32-617 isoform P22303-2 limits assumed): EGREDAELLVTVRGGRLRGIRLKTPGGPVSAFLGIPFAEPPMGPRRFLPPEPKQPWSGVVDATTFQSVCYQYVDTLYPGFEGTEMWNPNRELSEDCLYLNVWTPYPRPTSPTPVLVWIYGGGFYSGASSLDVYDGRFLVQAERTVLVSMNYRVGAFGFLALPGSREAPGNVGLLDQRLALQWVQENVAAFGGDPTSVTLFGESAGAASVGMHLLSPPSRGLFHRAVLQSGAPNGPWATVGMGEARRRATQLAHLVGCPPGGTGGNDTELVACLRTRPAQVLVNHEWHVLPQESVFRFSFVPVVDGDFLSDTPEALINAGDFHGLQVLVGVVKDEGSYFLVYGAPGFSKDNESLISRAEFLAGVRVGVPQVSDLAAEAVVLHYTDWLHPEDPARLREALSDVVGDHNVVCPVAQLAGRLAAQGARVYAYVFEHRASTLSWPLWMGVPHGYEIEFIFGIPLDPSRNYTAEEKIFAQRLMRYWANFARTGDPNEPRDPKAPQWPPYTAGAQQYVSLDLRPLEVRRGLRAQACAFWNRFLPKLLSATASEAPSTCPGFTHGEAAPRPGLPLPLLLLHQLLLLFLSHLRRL

## COc1ccc(CCN(C(C)C)S(=O)(=O)c2ccc(C)cc2)cc1 [Compound 5c, N-(4-Methoxyphenethyl)-4-methyl-N-(2-propyl)benzensulfonamide]
[1]; each of three independent experiments, Raw Data of IC50 sheet, read-out: IC50, single experiment (converted)
  IC50: 0.0424 µM and 0.108 µM
[1]; from human erythrocytes, mean ± SEM, read-out: Acetylcholinesterase IC50 ± SEM
  IC50: 0.0751 ± 0.0189 µM
[1]; log(inhibitor) vs. response fit, single run, IC50 Raw Data sheet
  LogIC50 (best-fit value): -1.584
[1]; log(inhibitor) vs. response fit, single run, unit inferred, IC50 Raw Data sheet, read-out: IC50 (best-fit value) (converted)
  IC50: 0.075 µM
[1]; mean converted to uM, Raw Data of IC50 sheet, read-out: IC50
  IC50: 0.0751 µM
[1]; mean of three experiments, Raw Data of IC50 sheet, read-out: IC50 (Mean) (converted)
  IC50: 0.0751 µM
[2]; Lineweaver-Burk plots
  type of inhibition: competitively; also recorded: competitive
[2]; compound 0.075 µM
  Slope of Lineweaver-Burk line: 1360.1
[2]; compound 0.075 µM, substrate axis value 0.25
  Vmax (1/V): 994.096
[2]; compound 0.075 µM, substrate axis value 0.5
  Vmax (1/V): 1353.4
[2]; compound 0.075 µM, substrate axis value 1
  Vmax (1/V): 2004.13
[2]; compound 0.075 µM, substrate axis value 2
  Vmax (1/V): 3323.6
[2]; compound 0.075 µM, substrate axis value 4
  Vmax (1/V): 5882.71
[2]; compound 0.075 µM, substrate axis value 8
  Vmax (1/V): 11587.8
[2]; compound 0.15 µM
  Slope of Lineweaver-Burk line: 1563.63
[2]; compound 0.15 µM, substrate axis value 0.25
  Vmax (1/V): 1136.29
[2]; compound 0.15 µM, substrate axis value 0.5
  Vmax (1/V): 1514.8
[2]; compound 0.15 µM, substrate axis value 1
  Vmax (1/V): 2227.02
[2]; compound 0.15 µM, substrate axis value 2
  Vmax (1/V): 3687.56
[2]; compound 0.15 µM, substrate axis value 4
  Vmax (1/V): 6343.71
[2]; compound 0.15 µM, substrate axis value 8
  Vmax (1/V): 13371.1
[2]; from Dixon / secondary plot of slope vs inhibitor concentration, read-out: inhibition constant Ki (EI dissociation constant)
  Ki: 2500 nM
